# According to US20140193827A1 (TEVA PHARMACEUTICAL INDUSTRIES, LTD., priority 2013, published 2014):
# Key:
# [1] = tested on: GA-primed murine splenocytes; assay: Functional gene expression analysis (Ingenuity Pathways Analysis: biological functions, canonical pathways); parameters: species or system mouse; settings: vs. Medium
# Method: To identify the leading biological mechanisms associated with genes induced in splenocytes by glatiramoids, gene functional annotation, enrichment, and pathway analyses were performed by Ingenuity Pathways Analysis (IPA) Suite (www.ingenuity.com). The program integrates data from various experimental platforms and primary literature sources to provide insight into molecular interactions, cellular phenotypes, and disease processes, and then predicts downstream biological effects of gene transcription changes. IPA web software was also used to reconstruct regulatory genes and transcriptional factors functional networks. A significance score (using the right-tailed Fisher's exact test and expressed as a p value) for each process is calculated as the number of gene transcripts that participate in a network or pathway relative to the total number of these genes in all functional/pathway annotations stored in the IPA database. All p values were applied for multiple testing corrections using Benjamini-Hochberg FDR method with a cut off at p =0.05.
# [2] = tested on: GA-primed murine splenocytes; assay: Differentially expressed genes GA vs PG by multiple parametric tests (ANOVA, LIMMA with background subtraction, comparative marker selection SNR and t-test); format: cell-based, mouse
# Method: The experimental design, data collection, and pre-processing steps have been previously described. […] After 3 days the mice were sacrificed, their splenocytes were isolated, and these splenocytes were mixed with activator solutions for 24 hours. […] Then the RNA was extracted and gene expression characterized by microarray using an Illumine WG-6_V2 chip. Illumina's BeadStudio software was utilized for image processing, quantification of signal intensity per bead, and background signal correction. The microarray data have been deposited in the Gene Expression Omnibus, under accession number GSE40566.
# We then corrected for batch variation with ComBat (30) as implemented in the SVA package of R (62). Each microarray's chip designation was supplied a batch label; there were 18 batches in all. The labels for the treatments (i.e. drug product, reference standard . . . ) were added as covariates.
# First, we computed the statistical significance of differential expression between treatments using the Analysis of Variance (ANOVA) method for each probe (65), adjusting for multiple hypothesis testing using the Benjamini-Hochberg False Discovery Rate (FDR) correction (66). […] The coefficients for the linear model were tested for significance using a modified t-test (taking into account standard deviation) and the p-values for each probe were adjusted using FDR. […] We applied two separate techniques within this framework; a traditional T-test and a Signal-to-Noise Ratio test (SNR). For each of these two tests, we adjusted the nominal p-values via FDR. For all four tests described, we used an adjusted threshold that was less than or equal to 0.05.
substance,measurement,setting,value
glatiramer acetate [GA],"Response, Activation of T lymphocytes",[1],Upregulated
same,"Response, Activation of antigen presenting cells",[1],Upregulated
same,"Response, Activation of lymphocytes",[1],Upregulated
same,"Response, Activation of mononuclear leukocytes",[1],Upregulated
same,"Response, Activation of phagocytes",[1],Upregulated
same,"Response, Development of hematopoietic progenitor cells",[1],Down-regulated
same,"Response, Differentiation of effector T lymphocytes",[1],Upregulated
same,"Response, Differentiation of naive lymphocytes",[1],No change
same,"Response, Expansion of lymphocytes",[1],No change
same,"Response, Expansion of mononuclear leukocytes",[1],No change
same,"Response, Immune response of antigen presenting cells",[1],Upregulated
same,"Response, Proliferation of B lymphocytes",[1],Upregulated
same,"Response, Proliferation of T lymphocytes",[1],No change
same,"Response, Proliferation of hematopoietic cell lines",[1],Upregulated
same,"Response, Proliferation of immune cells",[1],Upregulated
same,"Response, Proliferation of lymphocytes",[1],Upregulated
same,"Response, Quantity of cytotoxic T cells",[1],Down-regulated
same,"Response, Stimulation of antigen presenting cells",[1],Upregulated
same,"Response, Stimulation of macrophages",[1],Upregulated
same,"Response, Suppression of T lymphocytes",[1],Upregulated
same,"FOXP3 expression, GA vs PG",[2],significantly higher expression
same,"GPR83 expression, GA vs PG",[2],significantly higher levels of expression
same,"IFNG expression, GA compared to PG",[2]; probes ranked #1 and #3 by fold change,upregulated dramatically
